Data on 21 molecules can be found in US20230373985A1 (Origenis Gmbh, priority 2020, published 2023).

For assay [1], the target named is T1, wt human TYK2, catalytic site (Homo sapiens, UniProt P29597).
T1 construct: wt human TYK2, catalytic site; purchased SignalChem
T1 sequence (P29597 897-1176 limits assumed): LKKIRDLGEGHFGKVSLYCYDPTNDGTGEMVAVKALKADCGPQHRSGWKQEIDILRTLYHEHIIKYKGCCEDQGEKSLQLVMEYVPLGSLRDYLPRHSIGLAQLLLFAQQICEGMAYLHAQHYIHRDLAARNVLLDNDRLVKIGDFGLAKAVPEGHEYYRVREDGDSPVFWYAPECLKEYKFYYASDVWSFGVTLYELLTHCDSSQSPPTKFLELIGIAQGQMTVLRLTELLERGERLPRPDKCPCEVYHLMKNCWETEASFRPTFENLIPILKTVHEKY
The experiment in a line: HTRF KinEASE assay, TYK2. As to conditions: 1 μM ATP; read-out: IC50, Activity Toward TYK2. The class given is biochemical. An outline of the steps: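 HTRF KinEASE-TK readout with 1 μM biotinylated TK substrate in 1× kinase buffer, ≥30 min at room temperature, then antibody/streptavidin-XL665 detection for 60 min. TYK2 at 2 nM with 1 μM ATP; JAK2 at 1 nM with 100 μM ATP. Analysis uses emission ratios.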

Assay [2] has as its target T2, wt human JAK1, catalytic site (Homo sapiens, UniProt P23458).
T2 construct: wt human JAK1, catalytic site; purchased ThermoFisher
The experiment in a line: HTRF KinEASE assay, JAK1. The class given is biochemical. As to conditions: 2.5 μM ATP; read-out: IC50, Activity Toward JAK1. An outline of the steps:
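Two-step HTRF KinEASE assay: compound, kinase/biotinylated TK substrate and ATP were incubated at least 30 min at room temperature. Antibody plus streptavidin-XL665 was then added and plates were read after 60 min. Inhibition was derived from emission ratios according to the kit protocol.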
Background: Time-resolved FRET reads energy transfer from a long-lived donor to a nearby acceptor.

By IC50 is commonly meant the concentration that gives 50% inhibition.

Bounds are passed on as bounds.

T2 sequence (P23458 875-1153 limits assumed): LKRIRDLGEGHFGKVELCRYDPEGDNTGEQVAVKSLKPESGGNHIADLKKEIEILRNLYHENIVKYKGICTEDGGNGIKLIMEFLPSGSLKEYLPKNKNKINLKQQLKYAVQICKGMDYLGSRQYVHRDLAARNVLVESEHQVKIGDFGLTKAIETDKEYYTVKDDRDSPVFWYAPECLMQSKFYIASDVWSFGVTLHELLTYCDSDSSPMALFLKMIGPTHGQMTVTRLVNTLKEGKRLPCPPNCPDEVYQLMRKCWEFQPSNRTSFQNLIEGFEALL

As to `NC(=O)c1nn(-c2c(Cl)cccc2Cl)nc1Nc1ccc(C(=O)N2CC(F)C2)cn1` [compound 135, 2-(2,6-dichlorophenyl)-5-((5-(3-fluoroazetidine-1-carbonyl)pyridin-2-yl)amino)-2H-1,2,3-triazole-4-carboxamide], the half-inhibitory concentration (IC50) in assay [1] and in assay [2] was 10 to 100 nM in each case.

`CCc1cnnn1-c1ccc(Nc2cn(-c3c(Cl)cccc3Cl)nc2C(N)=O)cc1` [compound 411, 1-(2,6-dichlorophenyl)-4-((4-(5-ethyl-1H-1,2,3-triazol-1-yl)phenyl)amino)-1H-pyrazole-3-carboxamide]: the IC50 is under 10 nM in assay [1] and 10 to 100 nM in assay [2].

For the molecule `NC(=O)c1nn(-c2c(Cl)cccc2Cl)nc1Nc1ccc(-c2nc(C(F)(F)F)cn2CCO)cc1` [compound 112, 2-(2,6-dichlorophenyl)-5-((4-(1-(2-hydroxyethyl)-4-(trifluoromethyl)-1H-imidazol-2-yl)phenyl)amino)-2H-1,2,3-triazole-4-carboxamide], the IC50 in assay [1] and in assay [2] was under 10 nM each time.

For the molecule `COCc1nc(C(F)(F)F)nn1-c1ccc(Nc2cn(-c3c(Cl)cccc3Cl)nc2C(N)=O)cc1` [compound 281, 1-(2,6-dichlorophenyl)-4-((4-(5-(methoxymethyl)-3-(trifluoromethyl)-1H-1,2,4-triazol-1-yl)phenyl)amino)-1H-pyrazole-3-carboxamide], the figures for the IC50 in assay [1] and in assay [2] were under 10 nM and 100 to 1000 nM, respectively.

`Cn1cc(Nc2cn(-c3c(Cl)cccc3Cl)nc2C(N)=O)nn1` [compound 380, 1-(2,6-dichlorophenyl)-4-((1-methyl-1H-1,2,3-triazol-4-yl)amino)-1H-pyrazole-3-carboxamide]: the 50% inhibitory concentration (IC50) in assay [1] and in assay [2] was 100 to 1000 nM each time.

In the case of `CCc1ccnn1-c1ccc(Nc2cn(-c3c(Cl)cccc3Cl)nc2C(N)=O)cc1` [compound 241, 1-(2,6-dichlorophenyl)-4-((4-(5-ethyl-1H-pyrazol-1-yl)phenyl)amino)-1H-pyrazole-3-carboxamide], the figures for the IC50 in assay [1] and in assay [2] were 10 to 100 nM and under 10 nM, respectively.

For `Cc1ncnn1-c1ccc(Nc2nn(-c3c(Cl)cccc3Cl)nc2C(N)=O)nc1` [compound 156, 2-(2,6-dichlorophenyl)-5-((5-(5-methyl-1H-1,2,4-triazol-1-yl)pyridin-2-yl)amino)-2H-1,2,3-triazole-4-carboxamide], the IC50 in assay [1] and in assay [2] was 10 to 100 nM each time.

For the molecule `NC(=O)c1nn(-c2c(Cl)cccc2Cl)nc1Nc1ccc(C(=O)N2CCOCC2)cn1` [compound 140, 2-(2,6-dichlorophenyl)-5-((5-(morpholine-4-carbonyl)pyridin-2-yl)amino)-2H-1,2,3-triazole-4-carboxamide], the IC50 in assay [1] was 10 to 100 nM; in assay [2] it was 100 to 1000 nM.

Take `Cc1cccc2nnc(-c3ccc(Nc4cn(-c5c(Cl)cccc5Cl)nc4C(N)=O)nc3)n12` [compound 429, 1-(2,6-dichlorophenyl)-4-((5-(5-methyl-[1,2,4]triazolo[4,3-a]pyridin-3-yl)pyridin-2-yl)amino)-1H-pyrazole-3-carboxamide]: the half-inhibitory concentration (IC50) is 10 to 100 nM in assay [1] and 100 to 1000 nM in assay [2].

For the molecule `NC(=O)c1nn(-c2c(Cl)cccc2Cl)cc1Nc1ccc(C(=O)N2CCC2)cc1` [compound 92, 4-((4-(azetidine-1-carbonyl)phenyl)amino)-1-(2,6-dichlorophenyl)-1H-pyrazole-3-carboxamide], the IC50 in assay [1] and in assay [2] was 10 to 100 nM throughout.

For the molecule `Cc1cnc(C)c(-n2cc(Nc3cn(-c4c(Cl)cccc4Cl)nc3C(N)=O)cn2)n1` [compound 374, 1-(2,6-dichlorophenyl)-4-((1-(3,6-dimethylpyrazin-2-yl)-1H-pyrazol-4-yl)amino)-1H-pyrazole-3-carboxamide], the IC50 in assay [1] and in assay [2] was 100 to 1000 nM each time.

Consider `N#CC1CN(C(=O)c2ccc(Nc3cn(-c4c(Cl)cccc4Cl)nc3C(N)=O)nc2)C1` [compound 444, 4-((5-(3-cyanoazetidine-1-carbonyl)pyridin-2-yl)amino)-1-(2,6-dichlorophenyl)-1H-pyrazole-3-carboxamide], for which the IC50 in assay [1] and in assay [2] was 10 to 100 nM in each case.

`NC(=O)c1nn(-c2c(Cl)cccc2Cl)nc1Nc1ccc(C(=O)N2CCCC2)cn1` [compound 137, 2-(2,6-dichlorophenyl)-5-((5-(pyrrolidine-1-carbonyl)pyridin-2-yl)amino)-2H-1,2,3-triazole-4-carboxamide]: the IC50 in assay [1] and in assay [2] was 10 to 100 nM each time.

As to `Cn1nnnc1-c1ccc(Nc2cn(-c3c(Cl)cccc3Cl)nc2C(N)=O)nc1` [compound 445, 1-(2,6-dichlorophenyl)-4-((5-(1-methyl-1H-tetrazol-5-yl)pyridin-2-yl)amino)-1H-pyrazole-3-carboxamide], the IC50 in assay [1] and in assay [2] was 10 to 100 nM in each case.

For the molecule `CC(C)Oc1ccc(Nc2cn(-c3c(Cl)cccc3Cl)nc2C(N)=O)cc1` [compound 261, 1-(2,6-dichlorophenyl)-4-((4-isopropoxyphenyl)amino)-1H-pyrazole-3-carboxamide], the IC50 in assay [1] and in assay [2] was 100 to 1000 nM throughout.

As for `COCCn1cc(C(F)(F)F)nc1-c1ccc(Nc2cn(-c3c(Cl)cccc3Cl)nc2C(N)=O)cc1` [compound 307, 1-(2,6-dichlorophenyl)-4-((4-(1-(2-methoxyethyl)-4-(trifluoromethyl)-1H-imidazol-2-yl)phenyl)amino)-1H-pyrazole-3-carboxamide], the half-inhibitory concentration (IC50) in assay [1] is 10 to 100 nM; in assay [2], 100 to 1000 nM.

With `NC(=O)c1nn(-c2c(Cl)cccc2Cl)cc1Nc1ccc(-c2nnc3n2CCCC3)cc1` [compound 55, 1-(2,6-dichlorophenyl)-4-((4-(5,6,7,8-tetrahydro-[1,2,4]triazolo[4,3-a]pyridin-3-yl)phenyl)amino)-1H-pyrazole-3-carboxamide], the values for the IC50 in assay [1] and in assay [2] were 10 to 100 nM and 100 to 1000 nM, respectively.

Turning to `NC(=O)c1nn(-c2c(Cl)cccc2Cl)cc1Nc1ccc(C(=O)N2CCCC2)nc1` [compound 358, 1-(2,6-dichlorophenyl)-4-((6-(pyrrolidine-1-carbonyl)pyridin-3-yl)amino)-1H-pyrazole-3-carboxamide], the IC50 lay within 10 to 100 nM in assay [1] and 100 to 1000 nM in assay [2].

With `NC(=O)c1nn(-c2c(Cl)cccc2Cl)cc1Nc1ccc(C(=O)N2CCS(=O)(=O)CC2)nc1` [compound 463, 1-(2,6-dichlorophenyl)-4-((6-(1,1-dioxidothiomorpholine-4-carbonyl)pyridin-3-yl)amino)-1H-pyrazole-3-carboxamide], the figures for the IC50 in assay [1] and in assay [2] were under 10 nM and 10 to 100 nM, respectively.

`CN(C)Cc1nc(C(F)(F)F)nn1-c1ccc(Nc2cn(-c3c(Cl)cccc3Cl)nc2C(N)=O)cc1` [compound 297, 1-(2,6-dichlorophenyl)-4-((4-(5-((dimethylamino)methyl)-3-(trifluoromethyl)-1H-1,2,4-triazol-1-yl)phenyl)amino)-1H-pyrazole-3-carboxamide]: the IC50 in assay [1] is under 10 nM; in assay [2], 100 to 1000 nM.

For `Cc1nc2cc(Nc3cn(-c4c(Cl)cccc4Cl)nc3C(N)=O)ccc2n1C` [compound 43, 1-(2,6-dichlorophenyl)-4-((1,2-dimethyl-1H-benzo[d]imidazol-5-yl)amino)-1H-pyrazole-3-carboxamide], the IC50 in assay [1] and in assay [2] was 100 to 1000 nM throughout.
